Activity data for one compound are collected here from patent publication US10053456B2, “Cyclopropanamine compound and use thereof” (Takeda Pharmaceutical Company Limited, priority 2014, dated 2018).

SMILES strings stand for the structures. Counter-ions that a name gives are not always drawn.

The test system of the assay is Gad1 H3K4me2 level in rat primary culture neurons. Kind of assay: Gad1 H3K4 methylation induction activity in rat primary culture neurons (ChIP, quantitative PCR). The settings on record: Neuron, 72 h, 3 days culture, control without compound = 100%. It is filed as cell-based.

As to `Cc1nnc(NC(=O)c2cc([C@@H]3C[C@H]3NC3CCC3)cs2)s1` [Example 118, 4-((1S,2R)-2-(cyclobutylamino)cyclopropyl)-N-(5-methyl-1,3,4-thiadiazol-2-yl)thiophene-2-carboxamide sulfate], the activity at 10 µM turned out to be 233%.
